Test results taken from ChEMBL document CHEMBL1201862, “PubChem BioAssay data set” (2004).
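Where inhibition never reached the appropriate level, the endpoint shown equals the highest concentration tested. Otherwise, values were interpolated linearly from a five-concentration, 48-hour dose response in 96-well plates. Here, GI50 denotes the concentration required for 50% inhibition of growth.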 Calls of active or inactive are those of the source. No stated cut-off is given here; in the data, active = GI50 up to about 1.1 µM and inactive = higher.

Columns and labels:
Assay in all cases: inhibition of tumour cell growth, NCI panel, 48 h
A498 = tested on: A498
K562 = tested on: K562
SK-MEL-5 = tested on: SK-MEL-5
Hs-578T = tested on: Hs-578T
HT-29 = tested on: HT-29
ACHN = tested on: ACHN
NCI-H460 = tested on: NCI-H460
SW-620 = tested on: SW-620
HCT-116 = tested on: HCT-116
COLO 205 = tested on: COLO 205
CCRF-CEM = tested on: CCRF-CEM
SK-MEL-2 = tested on: SK-MEL-2
HCC 2998 = tested on: HCC 2998
MCF7 = tested on: MCF7
HOP-62 = tested on: HOP-62
KM12 = tested on: KM12
DU-145 = tested on: DU-145
SF-295 = tested on: SF-295
UACC-62 = tested on: UACC-62
786-0 = tested on: 786-0

SMILES	GI50 (A498)	GI50 (K562)	GI50 (SK-MEL-5)	GI50 (Hs-578T)	GI50 (HT-29)	GI50 (ACHN)	GI50 (NCI-H460)	GI50 (SW-620)	GI50 (HCT-116)	GI50 (COLO 205)	GI50 (CCRF-CEM)	GI50 (SK-MEL-2)	GI50 (HCC 2998)	GI50 (MCF7)	GI50 (HOP-62)	GI50 (KM12)	GI50 (DU-145)	GI50 (SF-295)	GI50 (UACC-62)	GI50 (786-0)
CC(C)OP(=O)(OC(C)C)C(C(C)C)N(C)/C(N)=N/C#N (stereo not given)	> 100 µM (inactive)	> 100 µM (inactive)	> 100 µM (inactive)	> 100 µM (inactive)	> 100 µM (inactive)	> 100 µM (inactive)	> 100 µM (inactive)	> 100 µM (inactive)	> 100 µM (inactive)	> 100 µM (inactive)	> 100 µM (inactive)	> 100 µM (inactive)	> 100 µM (inactive)	> 100 µM (inactive)	> 100 µM (inactive)	> 100 µM (inactive)	> 100 µM (inactive)	> 100 µM (inactive)	> 100 µM (inactive)	> 10 µM (inactive)
COC(=O)/C=C/c1ccccc1N=[S@](C)(=O)c1ccc(C)cc1	8.41 µM (inactive)	4.09 µM (inactive)	5.62 µM (inactive)	18.7 µM (inactive)	7.93 µM (inactive)	32.6 µM (inactive)	18.4 µM (inactive)	8.89 µM (inactive)	15.3 µM (inactive)	8.34 µM (inactive)	11.5 µM (inactive)	21.8 µM (inactive)	24.2 µM (inactive)	13.4 µM (inactive)	24.2 µM (inactive)	8.53 µM (inactive)	29.1 µM (inactive)	5.96 µM (inactive)	8.24 µM (inactive)	27.9 µM (inactive)
CCCCCCOc1ccc(C(=O)N(C)O)cc1	26.5 µM (inactive)	8.83 µM (inactive)	17.6 µM (inactive)	65.2 µM (inactive)	10.9 µM (inactive)	6.01 µM (inactive)	6.12 µM (inactive)	10.2 µM (inactive)	14.9 µM (inactive)	14.2 µM (inactive)	1.85 µM (inactive)	32.4 µM (inactive)	17.7 µM (inactive)	28.9 µM (inactive)	11 µM (inactive)	24 µM (inactive)	16.5 µM (inactive)	9.55 µM (inactive)	16.1 µM (inactive)	12.4 µM (inactive)
CC(=O)NNc1nc(C)c(C(/C=C/c2ccc3c(c2)OCO3)=N/Nc2ccccc2)s1	> 100 µM (inactive)	> 100 µM (inactive)	> 100 µM (inactive)	> 100 µM (inactive)	> 100 µM (inactive)	> 100 µM (inactive)	> 100 µM (inactive)	> 100 µM (inactive)	> 100 µM (inactive)	> 100 µM (inactive)	> 100 µM (inactive)	> 100 µM (inactive)	> 100 µM (inactive)	> 100 µM (inactive)	> 100 µM (inactive)	> 100 µM (inactive)	> 100 µM (inactive)	> 100 µM (inactive)	> 100 µM (inactive)	> 100 µM (inactive)
CN(CC(N)=O)C(=O)N(CCCl)N=O [SARCNU]	> 100 µM (inactive)	> 100 µM (inactive)	> 100 µM (inactive)	> 100 µM (inactive)	> 100 µM (inactive)	> 100 µM (inactive)	41.1 µM (inactive)	> 100 µM (inactive)	> 100 µM (inactive)	> 100 µM (inactive)	> 81.8 µM (inactive)	> 100 µM (inactive)	> 100 µM (inactive)	> 100 µM (inactive)	> 100 µM (inactive)	> 100 µM (inactive)	> 100 µM (inactive)	> 76.7 µM (inactive)	> 56.4 µM (inactive)	98.4 µM (inactive)
O=C(O/C=C\OC1CCCC1(c1ccccc1)c1ccccc1)c1ccccc1 (stereo not given)	23.1 µM (inactive)	4.19 µM (inactive)	10.8 µM (inactive)	7.05 µM (inactive)	3.44 µM (inactive)	4.1 µM (inactive)	25.9 µM (inactive)	2.7 µM (inactive)	2.51 µM (inactive)	15.6 µM (inactive)	2.04 µM (inactive)	3.31 µM (inactive)	18.7 µM (inactive)	2.6 µM (inactive)	18.8 µM (inactive)	14.9 µM (inactive)	3.02 µM (inactive)	19.2 µM (inactive)	6.28 µM (inactive)	4.03 µM (inactive)
CC(=O)Nc1ccc(NS(=O)(=O)c2ccc3nc(C)n(NS(=O)(=O)c4ccc(NC(C)=O)cc4)c(=O)c3c2)cc1	> 100 µM (inactive)	> 100 µM (inactive)	> 100 µM (inactive)	> 100 µM (inactive)	> 100 µM (inactive)	> 100 µM (inactive)	> 100 µM (inactive)	> 100 µM (inactive)	> 100 µM (inactive)	> 100 µM (inactive)	> 100 µM (inactive)	> 100 µM (inactive)	> 100 µM (inactive)	> 100 µM (inactive)	> 100 µM (inactive)	> 100 µM (inactive)	> 100 µM (inactive)	> 100 µM (inactive)	> 100 µM (inactive)	> 100 µM (inactive)
C=C1C(=O)OC2C1C(OC(=O)/C(C)=C/C)CC(O)(CCl)C1C(OC(C)=O)C=C(C)C21O (stereo not given)	21.8 µM (inactive)	7.8 µM (inactive)	14.1 µM (inactive)	61.9 µM (inactive)	16.3 µM (inactive)	8.97 µM (inactive)	20.8 µM (inactive)	3.98 µM (inactive)	7.5 µM (inactive)	8.3 µM (inactive)	2.79 µM (inactive)	15.9 µM (inactive)	16.3 µM (inactive)	6.56 µM (inactive)	34.8 µM (inactive)	19.2 µM (inactive)	15.2 µM (inactive)	58.5 µM (inactive)	14.3 µM (inactive)	11.6 µM (inactive)
C/C(CC(O)(C(F)(F)F)C(F)(F)F)=N\NC(N)=O	> 10 µM (inactive)	> 10 µM (inactive)	> 10 µM (inactive)	> 10 µM (inactive)	> 10 µM (inactive)	> 10 µM (inactive)	> 10 µM (inactive)	> 10 µM (inactive)	> 10 µM (inactive)	> 10 µM (inactive)	> 10 µM (inactive)	> 10 µM (inactive)	> 10 µM (inactive)	> 10 µM (inactive)	> 10 µM (inactive)	> 10 µM (inactive)	> 10 µM (inactive)	> 10 µM (inactive)	> 10 µM (inactive)	> 10 µM (inactive)
Cc1cc(O)nc(NN2C(Cl)C(=O)C2c2ccc(Cl)cc2)n1 (stereo not given)	18.2 µM (inactive)	2.88 µM (inactive)	12.8 µM (inactive)	30 µM (inactive)	18 µM (inactive)	23 µM (inactive)	16.4 µM (inactive)	22.5 µM (inactive)	11.3 µM (inactive)	17.2 µM (inactive)	1.87 µM (inactive)	19.3 µM (inactive)	17 µM (inactive)	12.8 µM (inactive)	19.6 µM (inactive)	10.6 µM (inactive)	23.3 µM (inactive)	8.61 µM (inactive)	16.7 µM (inactive)	15.6 µM (inactive)
COC1=C(OC)C(=O)C(Cc2c(-c3ccccc3)nc3sc(Cl)cn23)=C(C)C1=O	20.2 µM (inactive)	23.9 µM (inactive)	15.2 µM (inactive)	18.1 µM (inactive)	20.1 µM (inactive)	16 µM (inactive)	16 µM (inactive)	23.3 µM (inactive)	16.4 µM (inactive)	18.7 µM (inactive)	13.7 µM (inactive)	15.6 µM (inactive)	24.4 µM (inactive)	20.3 µM (inactive)	19.5 µM (inactive)	17 µM (inactive)	20 µM (inactive)	17 µM (inactive)	11.9 µM (inactive)	19.6 µM (inactive)
N#CC1(C#N)C2C=CC(C3CC=CC32)C1(C#N)C#N (stereo not given)	9.84 µM (inactive)	2.4 µM (inactive)	7.73 µM (inactive)	17.9 µM (inactive)	9.71 µM (inactive)	5.12 µM (inactive)	> 50 µM (inactive)	2.13 µM (inactive)	1.93 µM (inactive)	2.07 µM (inactive)	1.27 µM (inactive)	13.1 µM (inactive)	> 50 µM (inactive)	6.52 µM (inactive)	12.9 µM (inactive)	> 10 µM (inactive)	9.55 µM (inactive)	21.5 µM (inactive)	8.77 µM (inactive)	1.79 µM (inactive)
NCCCCN(CCCN)C(=O)c1ccccc1	> 100 µM (inactive)	> 100 µM (inactive)	> 100 µM (inactive)	> 100 µM (inactive)	> 100 µM (inactive)	> 100 µM (inactive)	> 100 µM (inactive)	> 100 µM (inactive)	> 100 µM (inactive)	> 100 µM (inactive)	> 100 µM (inactive)	> 100 µM (inactive)	> 100 µM (inactive)	> 100 µM (inactive)	> 100 µM (inactive)	> 100 µM (inactive)	> 100 µM (inactive)	> 100 µM (inactive)	> 100 µM (inactive)	> 100 µM (inactive)
CC(=O)O[C@H]1C(=O)[C@]2(C)[C@@H](OC(=O)OCCC(O)CO)C[C@H]3OC[C@@]3(OC(C)=O)[C@H]2[C@H](OC(=O)c2ccccc2)[C@]2(O)C[C@H](OC(=O)[C@H](O)[C@@H](NC(=O)c3ccccc3)c3ccccc3)C(C)=C1C2(C)C (stereo not given in full)	0.783 µM (active)	< 0.01 µM (active)	0.0172 µM (active)	< 0.01 µM (active)	< 0.01 µM (active)	3.48 µM (inactive)	< 0.0126 µM (active)	< 0.0251 µM (active)	< 0.01 µM (active)	< 0.01 µM (active)	< 0.01 µM (active)	0.0265 µM (active)	< 0.01 µM (active)	< 0.01 µM (active)	0.0964 µM (active)	< 0.01 µM (active)	0.0125 µM (active)	0.193 µM (active)	0.0108 µM (active)	0.08 µM (active)
